From ChEMBL document CHEMBL1143662 (Bioorg Med Chem, 2007)

Legend:
[1] = molecular target: T1, Melatonin receptor type 1A (Homo sapiens, UniProt P48039); test: Displacement of 2-[125I]iodomelatonin from human cloned MT1 receptor expressed in […] cells; type: cell-based
[2] = molecular target: T1, Melatonin receptor type 1A; test: Intrinsic activity at human cloned MT1 receptor expressed in […] cells by [35S]GTP-gamma-S binding assay relative to melatonin; type: functional, cell-based
[3] = molecular target: T2, Melatonin receptor type 1B (Homo sapiens, UniProt P49286); test: Displacement of 2-[125I]iodomelatonin from human cloned MT2 receptor expressed in […] cells; type: cell-based
T2 sequence (P49286 whole entry): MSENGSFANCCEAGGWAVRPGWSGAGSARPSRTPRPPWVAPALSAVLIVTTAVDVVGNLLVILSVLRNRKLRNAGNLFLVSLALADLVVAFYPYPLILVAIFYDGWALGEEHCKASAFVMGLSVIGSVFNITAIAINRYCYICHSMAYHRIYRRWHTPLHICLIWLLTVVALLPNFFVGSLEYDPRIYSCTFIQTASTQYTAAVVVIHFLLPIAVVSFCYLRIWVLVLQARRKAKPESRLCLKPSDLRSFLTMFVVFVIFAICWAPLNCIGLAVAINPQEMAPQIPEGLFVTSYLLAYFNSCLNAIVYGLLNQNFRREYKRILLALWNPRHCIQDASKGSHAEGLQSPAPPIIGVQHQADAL

[4] = molecular target: T3, Melatonin receptor type 1B (Homo sapiens) (UniProt P49286); test: Intrinsic activity at human cloned MT2 receptor expressed in […] cells by [35S]GTP-gamma-S binding assay relative to melatonin; type: functional, cell-based
T3 sequence (whole entry): T2 sequence (P49286 whole entry)

T1 sequence (P48039 whole entry): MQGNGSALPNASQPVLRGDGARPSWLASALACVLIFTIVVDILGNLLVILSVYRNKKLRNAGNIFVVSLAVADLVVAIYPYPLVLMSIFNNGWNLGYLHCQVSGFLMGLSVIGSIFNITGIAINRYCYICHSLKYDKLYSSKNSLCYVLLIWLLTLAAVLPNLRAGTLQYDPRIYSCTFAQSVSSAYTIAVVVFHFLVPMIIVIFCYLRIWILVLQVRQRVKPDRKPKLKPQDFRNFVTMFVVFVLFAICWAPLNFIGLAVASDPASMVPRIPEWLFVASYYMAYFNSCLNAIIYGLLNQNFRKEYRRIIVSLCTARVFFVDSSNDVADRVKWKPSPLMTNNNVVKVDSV

| Ki [1] | Intrinsic activity [2] | Ki [3] | Intrinsic activity [4] | Compound |
| --- | --- | --- | --- | --- |
| 387 nM | 0.81 | 573 nM | 0.79 | COc1ccc2[nH]cc(CCNC(=O)CCCCCCCCC(=O)NCCc3c[nH]c4ccc(OC)cc34)c2c1 |
| 59.8 nM | 0.33 | 7.75 nM | -0.17 | COc1ccc2[nH]c(C(=O)OCCCCCCCCCOC(=O)c3[nH]c4ccc(OC)cc4c3CCNC(C)=O)c(CCNC(C)=O)c2c1 |
| 215 nM | 0.35 | 65 nM | 0.08 | COc1ccc2[nH]c(C(=O)OCCCCCCCOC(=O)c3[nH]c4ccc(OC)cc4c3CCNC(C)=O)c(CCNC(C)=O)c2c1 |
| 25.4 nM | 0.72 | 44 nM | 0.64 | COc1ccc2[nH]c(C(=O)OCCCCCCCCCCCCOC(=O)c3[nH]c4ccc(OC)cc4c3CCNC(C)=O)c(CCNC(C)=O)c2c1 |
| 24.2 nM | 0.79 | 15.4 nM | 0.65 | COc1ccc2[nH]c(C(=O)OCCCCCCCCCCOC(=O)c3[nH]c4ccc(OC)cc4c3CCNC(C)=O)c(CCNC(C)=O)c2c1 |
| 83 nM | 0.75 | 20 nM | 0.38 | COc1ccc2[nH]c(C(=O)OCCCCCCCCCOC(=O)c3ccccc3)c(CCNC(C)=O)c2c1 |
| 20.1 nM | 1 | 62.4 nM | 0.93 | COc1ccc2[nH]c(C(=O)OCCCCCOC(=O)c3[nH]c4ccc(OC)cc4c3CCNC(C)=O)c(CCNC(C)=O)c2c1 |
| 9.5 nM | 0.77 | 14.3 nM | 0.8 | COc1ccc2[nH]c(C(=O)OCCCOC(=O)c3[nH]c4ccc(OC)cc4c3CCNC(C)=O)c(CCNC(C)=O)c2c1 |
| 70.1 nM | 0.06 | 4.8 nM | 0.23 | CCCCCOC(=O)c1[nH]c2ccc(OC)cc2c1CCNC(C)=O |
| 6470 nM | 0.35 | 7290 nM | 0.26 | COc1ccc2[nH]cc(CCNC(=O)CCCCCC(=O)NCCc3c[nH]c4ccc(OC)cc34)c2c1 |
| 7.91 nM | 1 | 7.92 nM | 0.9 | COc1ccc2[nH]c(C(=O)OCCCCCCCCOC(=O)c3[nH]c4ccc(OC)cc4c3CCNC(C)=O)c(CCNC(C)=O)c2c1 |
